Assay results reported in paper PMC12892976, “Alkylation-based optimization of antifungal FPPS inhibitors yields a potent, broad-spectrum lipophilic zoledronate derivative” (mBio, 2025).
Where two headings read alike, the source gives them in different places.

What was measured:
[1] = test system: Trichophyton rubrum; test: checkerboard drug interaction (FICI, MICc);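 also: simplified diagonal checkerboard screen pairing azole antifungals with FPPS inhibitors, FICI calculated under the Loewe additivity model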; type: cell-based; conditions: T. rubrum
Protocol: (§1) Drug interactions between antifungals and FPPS inhibitors were investigated using a simplified checkerboard diagonal screening method ([45]). […] FICIs were determined according to the Loewe additivity model ([17]).

[2] = test system: Cryptococcus deuterogattii; test: MIC/MFC broth microdilution (CLSI); conditions: Cryptococcus deuterogattii;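 also: broth microdilution per CLSI M27-Ed4. MFC is the lowest concentration yielding no colonies when MIC broths are subcultured onto SDA plates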
Protocol: (§2) Antifungal susceptibility was determined by broth microdilution according to the CLSI guidelines described in M27-Ed4 ([16]). […] MFC was determined by back-plating drug-treated cultures from MIC broths onto SDA plates. The MFC was defined as the lowest concentration from which no colonies could be cultured.

[3] = test system: eight fungal species; test: checkerboard interaction with azoles, summary across the eight species; type: cell-based; conditions: geometric mean MIC in combination with azoles
Source text: Synergy between lipophilic FPPS inhibitors and azole antifungals was investigated by determining the fractional inhibitory concentration index (FICI) (Fig. 2; Table S1 Fig. S1) ([17]). […]. Derivatives PLA9 and 11, and PDA9, 11, and 12 antagonized azoles in C. albicans, C. neoformans, and C. deuterogattii, yet were largely synergistic in C. glabrata and S. cerevisiae. […].

[4] = test system: Saccharomyces cerevisiae; test: checkerboard drug interaction (FICI, MICc); type: cell-based; design: INH MICc / INH MICc (ITR:INH) / INH MICc (KET:INH) / INH MICc (FLC:INH): unit not given beside the values;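 also: simplified diagonal checkerboard screen pairing antifungals with FPPS inhibitors, FICI calculated under the Loewe additivity model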
[5] = test system: Candida albicans; test: checkerboard drug interaction (FICI, MICc);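 as to all read-outs here: antifungal plus FPPS inhibitor combinations on Candida albicans tested by a simplified diagonal checkerboard screen, with FICI calculated under the Loewe additivity model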; type: cell-based; conditions: C. albicans; for INH FD (MIC-MICc fold decrease): fold decrease of inhibitor MIC
Protocol: as §1

[6] = test system: Candida glabrata; test: checkerboard drug interaction (FICI, MICc);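 as to all read-outs here: simplified diagonal checkerboard screen pairing antifungals with FPPS inhibitors, FICI calculated under the Loewe additivity model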; type: cell-based; conditions: C. glabrata; for INH FD (MIC-MICc fold decrease): fold decrease of inhibitor MIC
Protocol: as §1

[7] = test system: Trichophyton rubrum; test: MIC/MFC broth microdilution (CLSI); conditions: Trichophyton rubrum
Protocol: as §2

[8] = test system: Candida albicans; test: MIC/MFC broth microdilution (CLSI); type: cell-based; conditions: Candida albicans SC5314
Protocol: as §2

[9] = test system: Cryptococcus neoformans; test: MIC/MFC broth microdilution (CLSI); conditions: Cryptococcus neoformans;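 also: susceptibility testing followed the CLSI M27-Ed4 broth microdilution document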
Protocol: as §2

[10] = test system: Aspergillus flavus; test: MIC/MFC broth microdilution (CLSI); conditions: ATCC204304
Protocol: as §2

[11] = test system: Saccharomyces cerevisiae; test: MIC/MFC broth microdilution (CLSI); type: cell-based; conditions: Saccharomyces cerevisiae S288c
Protocol: as §2

[12] = test system: Candida glabrata; test: MIC/MFC broth microdilution (CLSI); conditions: Nakaseomyces glabratus, CBS138;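 also: broth microdilution following CLSI M27-Ed4, MFC taken as the lowest drug level yielding no growth once MIC wells were subcultured on SDA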
Protocol: as §2

[13] = test system: HEK-293T cells; test: MTT reduction cytotoxicity assay; type: cell-based; conditions: Homo sapiens, HEK-293T, 72 h, HEK-293T, MTT, 72 h; read-out: HEK IC50
[14] = test system: Aspergillus fumigatus; test: MIC/MFC broth microdilution (CLSI); conditions: ATCC204305
Protocol: as §2

[15] = test system: eight fungal species; test: MIC/MFC summary across the eight fungal species of Table 1; type: cell-based
Protocol: The antifungal activity of these compounds was evaluated according to CLSI guidelines ([16]).

[16] = test system: Aspergillus flavus; test: checkerboard drug interaction (FICI, MICc);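 also: simplified diagonal checkerboard screen pairing azole antifungals with FPPS inhibitors, FICI calculated under the Loewe additivity model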; type: cell-based; design: INH MICc (KET:INH) / INH MICc (FLC:INH): unit not given beside the values; conditions: A. flavus
[17] = test system: Cryptococcus deuterogattii; test: checkerboard drug interaction (FICI, MICc);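 as to all read-outs here: simplified diagonal checkerboard screen pairing antifungal drugs with FPPS inhibitors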; type: cell-based; conditions: C. deuterogattii; for INH FD (MIC-MICc fold decrease): fold decrease of inhibitor MIC
Protocol: as §1

[18] = test system: Aspergillus fumigatus; test: checkerboard drug interaction (FICI, MICc); type: cell-based;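 also: simplified diagonal checkerboard screen pairing antifungals with FPPS inhibitors against Aspergillus fumigatus, with FICI calculated under the Loewe additivity model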
Protocol: as §1

[19] = test system: Cryptococcus neoformans; test: checkerboard drug interaction (FICI, MICc);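 as to all read-outs here: antifungal plus FPPS inhibitor pairs tested against Cryptococcus neoformans by simplified diagonal checkerboard screening, FICI computed under the Loewe additivity model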; type: cell-based; conditions: C. neoformans; for INH FD (MIC-MICc fold decrease): fold decrease of inhibitor MIC
Protocol: as §1

[20] = Fractional Inhibitory Concentration Index, fluconazole + inhibitor
[21] = Fractional Inhibitory Concentration Index, itraconazole + inhibitor
[22] = Fractional Inhibitory Concentration Index, ketoconazole + inhibitor
[23] = MIC of the inhibitor in combination with fluconazole
[24] = MIC of the inhibitor in combination with itraconazole
[25] = MIC of the inhibitor in combination with ketoconazole
[26] = MIC-MICc fold decrease of fluconazole, negative = increase
[27] = MIC-MICc fold decrease of itraconazole, negative = increase
[28] = MIC-MICc fold decrease of ketoconazole, negative = increase
[29] = MIC-MICc fold decrease of the inhibitor, with fluconazole
[30] = MIC-MICc fold decrease of the inhibitor, with itraconazole
[31] = MIC-MICc fold decrease of the inhibitor, with ketoconazole
[32] = FLC:INH combination, MIC of the inhibitor in combination with FLC
[33] = FLC:INH combination, fold decrease of FLC MIC
[34] = ITR:INH combination, MIC of the inhibitor in combination with ITR
[35] = ITR:INH combination, fold decrease of ITR MIC
[36] = KET:INH combination, MIC of the inhibitor in combination with KET
[37] = KET:INH combination, fold decrease of KET MIC

`CCCCCCCCCCCN1CCC[C@H]1C(=O)N[C@H](CC(=O)O)C(=O)O` [PDA11] was tested, and the “FICI (FLC:INH)” value [1, 20] was 3, the “FICI (ITR:INH)” value [1, 21] was 2 and the “FICI (KET:INH)” value [1, 22] was 3. The “INH MICc (FLC:INH)” value [1, 23] was 256, the “INH MICc (ITR:INH)” value [1, 24] was 256 and the “INH MICc (KET:INH)” value [1, 25] was 256. The “FLC FD (FLC:INH)” value [1, 26] was -2, the “ITR FD (ITR:INH)” value [1, 27] was 1 and the “KET FD (KET:INH)” value [1, 28] was -2. The “INH FD (FLC:INH)” value [1, 29] was 1, the “INH FD (ITR:INH)” value [1, 30] was 1 and the “INH FD (KET:INH)” value [1, 31] was 1. For the same compound, the MFC [2] was greater than 128 µg/mL, the MIC [2] was greater than 128 µg/mL and the “GM fungal MICc” value [3] was 78.3. The “FICI (FLC:INH)” value [4, 20] was 0.5, the “FICI (ITR:INH)” value [4, 21] was 1.5 and the “FICI (KET:INH)” value [4, 22] was 0.5. For the same compound, the “INH MICc (FLC:INH)” value [4, 23] was 64, the “INH MICc (ITR:INH)” value [4, 24] was 128 and the “INH MICc (KET:INH)” value [4, 25] was 64. For the same compound, the “FLC FD (FLC:INH)” value [4, 26] was 4, the “ITR FD (ITR:INH)” value [4, 27] was 1 and the “KET FD (KET:INH)” value [4, 28] was 4. The “INH FD (FLC:INH)” value [4, 29] was 4, the “INH FD (ITR:INH)” value [4, 30] was 2 and the “INH FD (KET:INH)” value [4, 31] was 4. For the same compound, the FICI ([5]; FLC:INH combination) was no less than 4, the “INH MICc” value [5, 32] was 128 and the “FLC FD (MIC-MICc fold decrease)” value [5, 33] was less than -4. The “INH FD (MIC-MICc fold decrease)” value ([5]; FLC:INH combination) was 2, the FICI ([5]; ITR:INH combination) was no less than 4 and the “INH MICc” value [5, 34] was 128. For the same compound, the “ITR FD (MIC-MICc fold decrease)” value [5, 35] was less than -4, the “INH FD (MIC-MICc fold decrease)” value ([5]; ITR:INH combination) was 2 and the FICI ([5]; KET:INH combination) was no less than 4. The “INH MICc” value [5, 36] was 64, the “KET FD (MIC-MICc fold decrease)” value [5, 37] was less than -4 and the “INH FD (MIC-MICc fold decrease)” value ([5]; KET:INH combination) was 4. For the same compound, the FICI ([6]; FLC:INH combination) was 0.63, the “INH MICc” value [6, 32] was 8 and the “FLC FD (MIC-MICc fold decrease)” value [6, 33] was 2. For the same compound, the “INH FD (MIC-MICc fold decrease)” value ([6]; FLC:INH combination) was 32, the FICI ([6]; ITR:INH combination) was 0.28 and the “INH MICc” value [6, 34] was 2. For the same compound, the “ITR FD (MIC-MICc fold decrease)” value [6, 35] was 4, the “INH FD (MIC-MICc fold decrease)” value ([6]; ITR:INH combination) was 128 and the FICI ([6]; KET:INH combination) was 0.28. For the same compound, the “INH MICc” value [6, 36] was 2, the “KET FD (MIC-MICc fold decrease)” value [6, 37] was 4 and the “INH FD (MIC-MICc fold decrease)” value ([6]; KET:INH combination) was 128. It also gave an MFC [7] greater than 128 µg/mL, an MIC [7] greater than 128 µg/mL and an MFC [8] greater than 128 µg/mL. For the same compound, the MIC [8] was greater than 128 µg/mL, the MFC [9] was greater than 128 µg/mL and the MIC [9] was greater than 128 µg/mL. For the same compound, the MFC [10] was greater than 128 µg/mL, the MIC [10] was greater than 128 µg/mL and the MFC [11] was greater than 128 µg/mL. The MIC [11] was greater than 128 µg/mL, the MFC [12] was greater than 128 µg/mL and the MIC [12] was greater than 128 µg/mL. The IC50 [13] was greater than 256 µg/mL, the MFC [14] was greater than 128 µg/mL and the MIC [14] was greater than 128 µg/mL. It also gave an MFC ([15]; across eight species, read-out: Geometric mean MFC) greater than 128 µg/mL, an MIC ([15]; geometric mean across eight species, read-out: GM fungal MIC) greater than 128 µg/mL and an MIC ([15]; read-out: Geometric mean MIC) greater than 128 µg/mL. The “FICI (FLC:INH)” value [16, 20] was 1, the “FICI (ITR:INH)” value [16, 21] was 2 and the “FICI (KET:INH)” value [16, 22] was 0.75. For the same compound, the “INH MICc (FLC:INH)” value [16, 23] was 128, the “INH MICc (ITR:INH)” value [16, 24] was 256 and the “INH MICc (KET:INH)” value [16, 25] was 64. The “FLC FD (FLC:INH)” value [16, 26] was 2, the “ITR FD (ITR:INH)” value [16, 27] was 1 and the “KET FD (KET:INH)” value [16, 28] was 2. For the same compound, the “INH FD (FLC:INH)” value [16, 29] was 2, the “INH FD (ITR:INH)” value [16, 30] was 1 and the “INH FD (KET:INH)” value [16, 31] was 4. The FICI ([17]; FLC:INH combination) was no less than 4, the “INH MICc” value [17, 32] was 256 and the “FLC FD (MIC-MICc fold decrease)” value [17, 33] was -4. The “INH FD (MIC-MICc fold decrease)” value ([17]; FLC:INH combination) was 1, the FICI ([17]; ITR:INH combination) was no less than 4 and the “INH MICc” value [17, 34] was 256. The “ITR FD (MIC-MICc fold decrease)” value [17, 35] was less than -4, the “INH FD (MIC-MICc fold decrease)” value ([17]; ITR:INH combination) was 1 and the FICI ([17]; KET:INH combination) was 1. For the same compound, the “INH MICc” value [17, 36] was 128, the “KET FD (MIC-MICc fold decrease)” value [17, 37] was 2 and the “INH FD (MIC-MICc fold decrease)” value ([17]; KET:INH combination) was 2. For the same compound, the “FICI (FLC:INH)” value [18, 20] was 2, the “FICI (ITR:INH)” value [18, 21] was 0.51 and the “FICI (KET:INH)” value [18, 22] was 1.5. The “INH MICc (FLC:INH)” value [18, 23] was 256, the “INH MICc (ITR:INH)” value [18, 24] was 2 and the “INH MICc (KET:INH)” value [18, 25] was 128. For the same compound, the “FLC FD (FLC:INH)” value [18, 26] was 1, the “ITR FD (ITR:INH)” value [18, 27] was 2 and the “KET FD (KET:INH)” value [18, 28] was 1. The “INH FD (FLC:INH)” value [18, 29] was 1, the “INH FD (ITR:INH)” value [18, 30] was 128 and the “INH FD (KET:INH)” value [18, 31] was 2. The FICI ([19]; FLC:INH combination) was no less than 4, the “INH MICc” value [19, 32] was 256 and the “FLC FD (MIC-MICc fold decrease)” value [19, 33] was less than -4. The “INH FD (MIC-MICc fold decrease)” value ([19]; FLC:INH combination) was 1, the FICI ([19]; ITR:INH combination) was no less than 4 and the “INH MICc” value [19, 34] was 256. For the same compound, the “ITR FD (MIC-MICc fold decrease)” value [19, 35] was less than -4, the “INH FD (MIC-MICc fold decrease)” value ([19]; ITR:INH combination) was 1 and the FICI ([19]; KET:INH combination) was no less than 4. For the same compound, the “INH MICc” value [19, 36] was 128, the “KET FD (MIC-MICc fold decrease)” value [19, 37] was -4 and the “INH FD (MIC-MICc fold decrease)” value ([19]; KET:INH combination) was 2.
